The values below come from patent publication US10112911B2, “Substituted cyanoguanidines as oral anti-virals” (Abbvie Inc, priority 2012, dated 2018).

pEC50: −log10 of the molar value. Where a name gives a salt, the structure may show the parent alone. Read-outs that look alike come from different tables or passages of the source.

Series [1] relates to HEp-2 cells. The series is described as follows: Cytotoxicity assay (MTT) run in parallel with the antiviral assay. Type of series: cell-based. The settings on record: uninfected HEp-2 cells, 4 days incubation, 50% toxicity dose. The method, then: HEp-2 cells and RSV (Group A, Long Strain) were obtained from the American Type Culture Collection (Manassas, Va.). Cytotoxicity of the compounds was determined in experiments done in parallel with the antiviral assays. To do this, 100 μL of assay medium was added to the wells of HEp-2 cells pretreated with 100 μL serially diluted compounds as described above. After 4 days of incubation, the viability of the cells was determined by the MT assay in the same way as detailed in the “Antiviral Assay” method. Results were expressed as 50% toxicity dose (TD50) values. Compounds were tested to determine both their antiviral and toxicity to determine their therapeutic window. Determination of the EC50 and TD50 of these active compounds were repeated one additional time to confirm the window.

In series [2] the test system is RSV (Group A, Long Strain). Briefly: Cytopathetic effect (CPE) protection antiviral assay, MTT readout. It counts as cell-based. The settings on record: human respiratory syncytial virus, HEp-2, 96 h, read-out: RSV EC50. The method, then:
HEp-2 cells and RSV (Group A, Long Strain) were obtained from the American Type Culture Collection (Manassas, Va.).
A cytopathetic effect (CPE) protection assay was performed to determine the ability of a compound to protect the cells from viral infection and thus the CPE induced by viral infection. 96-Well plates were first seeded with […] per well in Dulbecco's modified Eagle's medium (DMEM) containing 10% fetal bovine serum (FBS). One day after the cells were seeded, they were preincubated with serial dilutions of compounds prepared in 100 μL assay medium (DMEM mixed with F12 medium at a 1:1 ratio, supplemented with 2% FBS and 1 mM sodium pyruvate) for 1 hour at 37° C. 100 μL of assay medium containing 0.2 multiplicity of infection (MOI) of RSV was then added to each well of cells. In addition to wells containing infected cells incubated with compounds, each plate also contained replicates of two kinds of controls: (1) Virus control contained cells infected with 0.2 MOI of RSV in assay medium, (2) Uninfected cell control contained cells incubated with assay medium only. After 4 days of incubation at 37° C., the viability of cells was assessed using MTT (Thiazolyl blue tetrazolium bromide, Sigma). A stock solution of MTT, at a concentration of 4 mg/mL in phosphate-buffered saline, was added to all wells at 25 μL per well. Plates were further incubated for 4 hours, and each well was then treated with 50 μL of a solution containing 20% sodium dodecyl sulfate (SDS) and 0.02 N HCl. After an overnight incubation, the plates were measured on a BioTek® microtiter plate reader at wavelengths of 570 nm and 650 nm. The MTT detection is based on the fact that viable (uninfected) cells can reduce the tetrazolium salts into colored formazan products, which can then be quantitated by spectrometry. Based on the spectrometric absorbance of each sample, the percent of protection from CPE, which is an indicator of protection from viral infection, can be calculated for each compound and the 50% effective concentrations (EC50) can be calculated using a nonlinear regression curve fitting equation provided by the GraphPad Prism® 4 software.
Compounds were tested to determine both their antiviral and toxicity to determine their therapeutic window. Determination of the EC50 and TD50 of these active compounds were repeated one additional time to confirm the window.

Where [3] appears, read: HEp-2 cells, 0.2 MOI RSV, 4 days incubation, protection from CPE (Table 1).
Setting [4] is: HEp-2 cells, 0.2 MOI RSV, 4 days, Table 2, determination repeated to confirm window.

In the case of `Cc1ccccc1N/C(=N/C#N)N1CCN(c2nccnc2C#N)CC1C(C)C` (stereo not drawn) [Example 1.1, N′-cyano-4-(3-cyanopyrazin-2-yl)-2-isopropyl-N-(2-methylphenyl)piperazine-1-carboximidamide], the “MTT TD50” value in series [1] was above 100 µM. Moreover, the pEC50 in series [2] (setting [3]) and in series [2] (setting [4]) was 6.05 each time.

In the case of `COC(=O)c1cnc(N2CCN(/C(=N\C#N)Nc3ccccc3Cl)C(C(C)C)C2)cn1` (stereo not drawn) [Example 1.2, methyl 5-{4-[N-(2-chlorophenyl)-N′-cyanocarbamimidoyl]-3-isopropylpiperazin-1-yl}pyrazine-2-carboxylate], the “MTT TD50” value in series [1] was above 100 µM. In addition, the pEC50 in series [2] (setting [3]) and in series [2] (setting [4]) was 5.95 in each case.

In the case of `Cc1ccccc1N/C(=N/C#N)N1CCN(c2cnc3ccccc3n2)CC1C(C)C` (stereo not drawn) [Example 1.3, N′-cyano-2-isopropyl-N-(2-methylphenyl)-4-(quinoxalin-2-yl)piperazine-1-carboximidamide trifluoroacetate], the “MTT TD50” value in series [1] is above 32 µM. The pEC50 in series [2] is 6.60.

On to `Cc1ccccc1N/C(=N/C#N)N1CCN(c2nc3ccccc3o2)CC1C(C)C` (stereo not drawn) [Example 1.4, 4-(1,3-benzoxazol-2-yl)-N′-cyano-2-isopropyl-N-(2-methylphenyl)piperazine-1-carboximidamide], for which the “MTT TD50” value in series [1] stood at 28.85 µM. Besides, the pEC50 in series [2] (setting [3]) and in series [2] (setting [4]) was 5.94 in each case.

For `Cc1ccccc1N/C(=N/C#N)N1CCN(c2nc3cccc(Cl)c3o2)CC1C(C)C` (stereo not drawn) [Example 1.5, 4-(7-chloro-1,3-benzoxazol-2-yl)-N′-cyano-2-isopropyl-N-(2-methylphenyl)piperazine-1-carboximidamide], the “MTT TD50” value in series [1] is above 10 µM. For the same compound, the pEC50 in series [2] (setting [3]) and in series [2] (setting [4]) was 6.09 each time.

Turning to `Cc1ccccc1N/C(=N/C#N)N1CCN(c2nc3ccccc3s2)CC1C(C)C` (stereo not drawn) [Example 1.6, 4-(1,3-benzothiazol-2-yl)-N′-cyano-2-isopropyl-N-(2-methylphenyl)piperazine-1-carboximidamide], in series [1], the “MTT TD50” value was above 10 µM. For the same compound, the pEC50 in series [2] (setting [3]) was 5.80; in series [2] (setting [4]) it was 5.73.

Regarding `Cc1ccc2oc(N3CCN(/C(=N\C#N)Nc4ccccc4C)C(C(C)C)C3)nc2c1` (stereo not drawn) [Example 1.7, N′-cyano-2-isopropyl-4-(5-methyl-1,3-benzoxazol-2-yl)-N-(2-methylphenyl)piperazine-1-carboximidamide], in series [1], the “MTT TD50” value is above 10 µM. Also, the pEC50 in series [2] (setting [3]) and in series [2] (setting [4]) was 6.08 throughout.

For the compound `Cc1ccccc1N/C(=N/C#N)N1CCN(c2ncnc3ccccc23)CC1C(C)C` (stereo not drawn) [Example 1.8, N′-cyano-2-isopropyl-N-(2-methylphenyl)-4-(quinazolin-4-yl)piperazine-1-carboximidamide], the “MTT TD50” value in series [1] was above 100 µM. The pEC50 in series [2] (setting [3]) was 6.35; in series [2] (setting [4]) it was 6.52.

With `Cc1ccccc1N/C(=N/C#N)N1CCN(c2nc3ccccc3[nH]2)CC1C(C)C` (stereo not drawn) [Example 1.9, 4-(1H-benzimidazol-2-yl)-N′-cyano-2-isopropyl-N-(2-methylphenyl)piperazine-1-carboximidamide], in series [1], the “MTT TD50” value is above 100 µM. For the same compound, the pEC50 in series [2] (setting [3]) and in series [2] (setting [4]) was 5.39 in each case.

Regarding `Cc1ccccc1N/C(=N/C#N)N1CCN(c2nc3ccccc3c(=O)[nH]2)CC1C(C)C` (stereo not drawn) [Example 1.10, N′-cyano-2-isopropyl-N-(2-methylphenyl)-4-(4-oxo-3,4-dihydroquinazolin-2-yl)piperazine-1-carboximidamide], the “MTT TD50” value in series [1] was above 100 µM. The pEC50 in series [2] (setting [3]) and in series [2] (setting [4]) was 6.37 in each case.

For the compound `Cc1ccccc1N/C(=N/C#N)N1CCN(c2ncnc3[nH]ccc23)CC1C(C)C` (stereo not drawn) [Example 1.11, N′-cyano-2-isopropyl-N-(2-methylphenyl)-4-(7H-pyrrolo[2,3-d]pyrimidin-4-yl)piperazine-1-carboximidamide], the “MTT TD50” value in series [1] is above 100 µM. Moreover, the pEC50 was 5.85 in series [2] (setting [3]) and 5.72 in series [2] (setting [4]).

Consider `Cc1ccccc1N/C(=N/C#N)N1CCN(c2cnc3ccccc3n2)C[C@@H]1C(C)C` [Example 1.13, (2S)—N′-cyano-2-isopropyl-N-(2-methylphenyl)-4-(quinoxalin-2-yl)piperazine-1-carboximidamide trifluoroacetate], for which the “MTT TD50” value in series [1] was above 38.6 µM. For the same compound, the pEC50 in series [2] is 6.70.

Consider `CC(C)C1CN(c2cnc3ccccc3n2)CCN1/C(=N\C#N)Nc1ccccc1Cl` (stereo not drawn) [Example 1.19, N-(2-chlorophenyl)-N′-cyano-2-isopropyl-4-(quinoxalin-2-yl)piperazine-1-carboximidamide], for which, in series [1], the “MTT TD50” value is above 27.49 µM. For the same compound, the pEC50 in series [2] (setting [3]) and in series [2] (setting [4]) was 6.82 in each case.

Turning to `CCC1CN(c2cnc3ccccc3n2)CCN1/C(=N\C#N)Nc1ccccc1C` (stereo not drawn) [Example 1.44, N′-cyano-2-ethyl-N-(2-methylphenyl)-4-(quinoxalin-2-yl)piperazine-1-carboximidamide], the “MTT TD50” value in series [1] is 42.06 µM. The negative logarithm of the EC50 (pEC50) in series [2] (setting [3]) and in series [2] (setting [4]) was 6.92 each time.

For `Cc1ccccc1N/C(=N/C#N)N1CCN(c2cnc3cc(F)ccc3n2)CC1C(C)C` (stereo not drawn) [Example 1.54, N′-cyano-4-(6-fluoroquinoxalin-2-yl)-2-isopropyl-N-(2-methylphenyl)piperazine-1-carboximidamide], the “MTT TD50” value in series [1] is above 29.31 µM. In addition, the negative-log EC50 (pEC50) in series [2] (setting [3]) and in series [2] (setting [4]) was 6.59 each time.

For the compound `Cc1ccccc1NC(=NC#N)N1CCN(c2nc3ccccc3n2C)CC1C(C)C` (stereo not drawn) [Example 1.69, N′-cyano-2-isopropyl-4-(1-methyl-1H-benzimidazol-2-yl)-N-(2-methylphenyl)piperazine-1-carboximidamide], the pEC50 in series [2] (setting [3]) was 5.52.

Regarding `Cc1ccccc1NC(=NC#N)N1CCN(c2cnc3ccccc3n2)C(C(C)C)C1` (stereo not drawn) [Example 1.70, N′-cyano-3-isopropyl-N-(2-methylphenyl)-4-(quinoxalin-2-yl)piperazine-1-carboximidamide], the pEC50 in series [2] (setting [3]) was below 5.00.

With `Cc1ccncc1NC(=NC#N)N1CCN(c2cnc3ccccc3n2)CC1C(C)C` (stereo not drawn) [Example 1.72, N′-cyano-2-isopropyl-N-(4-methylpyridin-3-yl)-4-(quinoxalin-2-yl)piperazine-1-carboximidamide], the pEC50 in series [2] (setting [3]) is below 5.27.

As to `Cc1ncccc1N/C(=N/C#N)N1CCN(c2cnc3ccccc3n2)CC1C(C)C` (stereo not drawn) [Example 1.73, N′-cyano-2-isopropyl-N-(2-methylpyridin-3-yl)-4-(quinoxalin-2-yl)piperazine-1-carboximidamide], the pEC50 in series [2] (setting [3]) is below 5.00.

Consider `Cc1ccccc1NC(=NC#N)N1CCN(c2cnc3ccccc3n2)CC1` [Example 1.74, N′-cyano-N-(2-methylphenyl)-4-(quinoxalin-2-yl)piperazine-1-carboximidamide], for which the pEC50 in series [2] (setting [3]) was below 4.21.

For `Cc1ccccc1N(C)C(=NC#N)N1CCN(c2cnc3ccccc3n2)CC1C(C)C` (stereo not drawn) [Example 1.75, N′-cyano-2-isopropyl-N-methyl-N-(2-methylphenyl)-4-(quinoxalin-2-yl)piperazine-1-carboximidamide], in series [2] (setting [3]), the pEC50 was 5.47.

Turning to `Cc1ccccc1NC(=NC#N)NC(CNc1cnc2ccccc2n1)C(C)C` (stereo not drawn) [Example 2.1, 2-cyano-1-(2-methylphenyl)-3-[3-methyl-1-(quinoxalin-2-ylamino)butan-2-yl]guanidine], the pEC50 in series [2] (setting [3]) was below 5.00.

With `Cc1ccccc1NC(=NC#N)N1CCN(c2cnc3ccccc3n2)CCC1C(C)C` (stereo not drawn) [Example 3.1, N′-cyano-7-isopropyl-N-(2-methylphenyl)-4-(quinoxalin-2-yl)-1,4-diazepane-1-carboximidamide], in series [2], the pEC50 was below 4.49.

The term pEC50 denotes the negative decadic logarithm of the EC50, by convention in mol/L.
